Assay results published in paper PMC12148441, “The mechanism of peptidoglycan O-acetylation in Gram-negative bacteria typifies bacterial MBOAT-SGNH acyltransferases [drawing 1]” (The Journal of Biological Chemistry, 2025).

Target: T1, NgPatBΔ100 (Neisseria gonorrhoeae, UniProt Q5F966)
T1 construct: gene NGO_0533; SGNH domain (Δ100, N-terminal truncation), E. coli BL21(DE3), His-SUMO tag removed by Ulp1; catalytic Ser133, His305, Asp302
Assay: transacetylation of chitopentaose
Assay type: biochemical
Details: acetyl donor (1 mM acetyl-amino acids); chitopentaose acceptor; 50 mM sodium phosphate pH 7.0

T1 sequence (Q5F966 entry or part of it, stated change not applied): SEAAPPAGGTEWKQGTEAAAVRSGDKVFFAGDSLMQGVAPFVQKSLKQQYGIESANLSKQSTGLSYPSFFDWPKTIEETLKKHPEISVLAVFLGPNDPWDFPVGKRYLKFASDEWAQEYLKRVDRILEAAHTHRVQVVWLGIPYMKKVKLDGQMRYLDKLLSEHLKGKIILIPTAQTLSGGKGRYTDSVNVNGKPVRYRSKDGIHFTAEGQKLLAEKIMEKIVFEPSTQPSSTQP

CC(=O)Oc1ccc(C[C@H](N)C(=O)O)cc1 [O-acetyl-Tyr]
transacetylation of chitopentaose: O-acetyl-Tyr, but not O-acetyl-Ser, were sufficient for transacetylation of chitopentaose by NgPatB
